Assay results reported in patent US20250084084A1, “Crystalline form of (2R)-2-(5-fluoro-2-methoxypyridin-4-yl)-1-[(2S)-7-methyl-6-(pyrimidin-2-yl)-3,4-dihydro-1H-spiro[1,8-naphthyridine-2,3-pyrrolidin]-1-yl]propan-1-one” (Pfizer Inc., priority 2020, published 2025).
Where two headings read alike, the source gives them in different places.

Target: α-melanocyte-stimulating hormone receptor (hMC4R) (Homo sapiens (Human), UniProt P32245)
Assay: In vitro binding affinity assay using hMC4R (radioligand competition binding, [125I]-(Nle4, D-Phe7)-α-MSH)
Details: geometric mean
Procedure, shortened: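 Membranes from CHO cells stably expressing hMC4R (2 μg/well) incubated 2 h RT with [125I]-NDP-α-MSH and compound (300 nM-0.01 nM, 1% DMSO); 2 μM α-MSH defined nonspecific binding. Filtration and scintillation counting; Ki from IC50 via Cheng-Prusoff.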

[1] = read-out: Ki (nM) geometric mean

Chain of α-melanocyte-stimulating hormone receptor (hMC4R) (P32245 whole entry): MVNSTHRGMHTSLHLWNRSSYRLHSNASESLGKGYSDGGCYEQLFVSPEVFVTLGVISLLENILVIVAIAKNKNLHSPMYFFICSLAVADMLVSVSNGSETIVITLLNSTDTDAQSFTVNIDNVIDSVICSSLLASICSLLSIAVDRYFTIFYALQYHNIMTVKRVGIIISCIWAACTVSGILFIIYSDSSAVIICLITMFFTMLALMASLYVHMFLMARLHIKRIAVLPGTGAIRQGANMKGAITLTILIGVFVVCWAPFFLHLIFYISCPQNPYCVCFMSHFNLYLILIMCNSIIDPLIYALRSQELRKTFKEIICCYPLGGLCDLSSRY

Compound	Ki (read-out: Ki (nM) geometric)	Ki [1]
COc1cc([C@@H](C)C(=O)N2CC[C@@]3(CCc4cc(-c5ccc(F)cn5)c(C)nc4N3)C2)c(F)cn1 [Example 139, (2R)-2-(5-fluoro-2-methoxypyridin-4-yl)-1-[(2S)-6-(5-fluoropyridin-2-yl)-7-methyl-3,4-dihydro-1H-spiro[1,8-naphthyridine-2,3′-pyrrolidin]-1′-yl]propan-1-one]	13 nM	–
COc1cc([C@@H](C)C(=O)N2CC[C@@]3(CCc4cc(-c5ncc(C(F)(F)F)cc5F)c(C)nc4N3)C2)c(F)cn1 [Example 68, (2R)-2-(5-fluoro-2-methoxypyridin-4-yl)-1-{(2S)-6-[3-fluoro-5-(trifluoromethyl)pyridin-2-yl]-7-methyl-3,4-dihydro-1H-spiro[1,8-naphthyridine-2,3′-pyrrolidin]-1′-yl}propan-1-one]	–	35 nM
COc1cc([C@@H](C)C(=O)N2CC[C@@]3(CCc4cc(-c5cncc(C)n5)c(C)nc4N3)C2)c(F)cn1 [Example 156, (2R)-2-(5-fluoro-2-methoxypyridin-4-yl)-1-[(2S)-7-methyl-6-(6-methylpyrazin-2-yl)-3,4-dihydro-1H-spiro[1,8-naphthyridine-2,3′-pyrrolidin]-1′-yl]propan-1-one]	5.9 nM	–
COc1cc([C@@H](C)C(=O)N2CC[C@@]3(CCc4cc(-c5ccc(C6CC6)nn5)c(C)nc4N3)C2)c(F)cn1 [Example 199, (2R)-1-[(2S)-6-(6-cyclopropylpyridazin-3-yl)-7-methyl-3,4-dihydro-1H-spiro[1,8-naphthyridine-2,3′-pyrrolidin]-1′-yl]-2-(5-fluoro-2-methoxypyridin-4-yl)propan-1-one]	15 nM	–
COc1cc([C@@H](C)C(=O)N2CC[C@@]3(CCc4cc(-c5nc(C(F)F)n(C)n5)c(C)nc4N3)C2)nc(C)n1 (single isomer, unassigned) [Example 123]	0.22 nM	–
Cc1nc2c(cc1-c1ncccn1)CC[C@@]1(CCN(C(=O)C(C)c3ccnc(OC(F)F)c3)C1)N2 (single isomer, unassigned) [Example 194]	92 nM	–
COc1cc([C@@H](C)C(=O)N2CC[C@@]3(CCc4cc(-c5cc6onc(C)c6cc5C)c(C)nc4N3)C2)c(F)cn1 [Example 160, (2R)-1-[(2S)-6-(3,5-dimethyl-1,2-benzoxazol-6-yl)-7-methyl-3,4-dihydro-1H-spiro[1,8-naphthyridine-2,3′-pyrrolidin]-1′-yl]-2-(5-fluoro-2-methoxypyridin-4-yl)propan-1-one]	200 nM	–
COc1cc([C@@H](C)C(=O)N2CC[C@@]3(CCc4cc(-c5nc(C)cc(C)n5)c(C)nc4N3)C2)c(F)cn1 [Example 184, (2R)-1-[(2S)-6-(4,6-dimethylpyrimidin-2-yl)-7-methyl-3,4-dihydro-1H-spiro[1,8-naphthyridine-2,3′-pyrrolidin]-1′-yl]-2-(5-fluoro-2-methoxypyridin-4-yl)propan-1-one]	6.3 nM	–
COc1cc([C@@H](C)C(=O)N2CC[C@@]3(CCc4cc(-c5cc(C)nc(C(C)C)n5)c(C)nc4N3)C2)c(F)cn1 [Example 183, (2R)-2-(5-fluoro-2-methoxypyridin-4-yl)-1-{(2S)-7-methyl-6-[6-methyl-2-(propan-2-yl)pyrimidin-4-yl]-3,4-dihydro-1H-spiro[1,8-naphthyridine-2,3′-pyrrolidin]-1′-yl}propan-1-one]	4 nM	–
COc1cc([C@@H](C)C(=O)N2CC[C@@]3(CCc4cc(-c5cnc(C)s5)c(C)nc4N3)C2)c(F)cn1 [Example 153, (2R)-2-(5-fluoro-2-methoxypyridin-4-yl)-1-[(2S)-7-methyl-6-(2-methyl-1,3-thiazol-5-yl)-3,4-dihydro-1H-spiro[1,8-naphthyridine-2,3′-pyrrolidin]-1′-yl]propan-1-one]	3.3 nM	–
COc1cc([C@@H](C)C(=O)N2CC[C@@]3(CCc4cc(-c5ccncc5)c(C)nc4N3)C2)c(F)cn1 [Example 169, (2R)-2-(5-fluoro-2-methoxypyridin-4-yl)-1-[(2S)-7-methyl-6-(pyridin-4-yl)-3,4-dihydro-1H-spiro[1,8-naphthyridine-2,3′-pyrrolidin]-1′-yl]propan-1-one]	7.6 nM	–
COc1cc([C@@H](C)C(=O)N2CCC3(CCc4cc(-c5coc(C)n5)c(C)nc4N3)C2)c(F)cn1 (mixture of isomers) [Example 33, (2R)-2-(5-fluoro-2-methoxypyridin-4-yl)-1-[7-methyl-6-(2-methyl-1,3-oxazol-4-yl)-3,4-dihydro-1H-spiro[1,8-naphthyridine-2,3′-pyrrolidin]-1′-yl]propan-1-one]	–	2.6 nM
COc1cc([C@@H](C)C(=O)N2CC[C@@]3(CCc4cc(-c5ncc(C(F)(F)F)s5)c(C)nc4N3)C2)c(F)cn1 [Example 201, (2R)-2-(5-fluoro-2-methoxypyridin-4-yl)-1-{(2S)-7-methyl-6-[5-(trifluoromethyl)-1,3-thiazol-2-yl]-3,4-dihydro-1H-spiro[1,8-naphthyridine-2,3′-pyrrolidin]-1′-yl}propan-1-one]	110 nM	–
COc1cc([C@@H](C)C(=O)N2CC[C@@]3(CCc4cc(-c5nccnc5C)c(C)nc4N3)C2)c(F)cn1 [Example 164, (2R)-2-(5-fluoro-2-methoxypyridin-4-yl)-1-[(2S)-7-methyl-6-(3-methylpyrazin-2-yl)-3,4-dihydro-1H-spiro[1,8-naphthyridine-2,3′-pyrrolidin]-1′-yl]propan-1-one]	18 nM	–
COc1cc([C@@H](C)C(=O)N2CC[C@@]3(CCc4cc(-c5ncccn5)c(C)nc4N3)C2)cc(OC)n1 (single isomer, unassigned) [Example 83]	–	0.67 nM
COc1cc([C@@H](C)C(=O)N2CC[C@@]3(CCc4cc(-c5cc(C)ccn5)c(C)nc4N3)C2)c(F)cn1 [Example 166, (2R)-2-(5-fluoro-2-methoxypyridin-4-yl)-1-[(2S)-7-methyl-6-(4-methylpyridin-2-yl)-3,4-dihydro-1H-spiro[1,8-naphthyridine-2,3′-pyrrolidin]-1′-yl]propan-1-one]	8.2 nM	–
COc1cc([C@H](C)C(=O)N2CC[C@@]3(CCc4cc(-c5ncccn5)c(C)nc4N3)C2)c(F)cn1 [Example 28, (2S)-2-(5-fluoro-2-methoxypyridin-4-yl)-1-[(2S)-7-methyl-6-(pyrimidin-2-yl)-3,4-dihydro-1H-spiro[1,8-naphthyridine-2,3′-pyrrolidin]-1′-yl]propan-1-one]	–	160 nM
COc1cc([C@@H](C)C(=O)N2CC[C@@]3(CCc4cc(-c5ncccn5)c(C)nc4N3)C2)c(F)cn1 [Example 14, (2R)-2-(5-Fluoro-2-methoxypyridin-4-yl)-1-[(2S)-7-methyl-6-(pyrimidin-2-yl)-3,4-dihydro-1H-spiro[1,8-naphthyridine-2,3′-pyrrolidin]-1′-yl]propan-1-one]	–	0.46 nM
COc1cc([C@@H](C)C(=O)N2CC[C@@]3(CCc4cc(-c5ncc(F)cn5)c(C)nc4N3)C2)c(F)cn1 [Example 146, (2R)-2-(5-fluoro-2-methoxypyridin-4-yl)-1-[(2S)-6-(5-fluoropyrimidin-2-yl)-7-methyl-3,4-dihydro-1H-spiro[1,8-naphthyridine-2,3′-pyrrolidin]-1′-yl]propan-1-one]	1.2 nM	–
Cc1nc(OC(F)F)cc([C@@H](C)C(=O)N2CC[C@@]3(CCc4cc(-c5ncccn5)c(C)nc4N3)C2)n1 (single isomer, unassigned) [Example 44]	–	54 nM
COc1cc([C@@H](C)C(=O)N2CC[C@@]3(CCc4cc(-c5nc(C(F)F)n(C)n5)c(C)nc4N3)C2)c(Cl)cn1 [Example 120, (2R)-2-(5-chloro-2-methoxypyridin-4-yl)-1-{(2S)-6-[5-(difluoromethyl)-1-methyl-1H-1,2,4-triazol-3-yl]-7-methyl-3,4-dihydro-1H-spiro[1,8-naphthyridine-2,3′-pyrrolidin]-1′-yl}propan-1-one]	0.4 nM	–
COc1cc([C@@H](C)C(=O)N2CC[C@@]3(CCc4cc(-c5ccc6sc(C)nc6c5)c(C)nc4N3)C2)c(F)cn1 [Example 165, (2R)-2-(5-fluoro-2-methoxypyridin-4-yl)-1-[(2S)-7-methyl-6-(2-methyl-1,3-benzothiazol-5-yl)-3,4-dihydro-1H-spiro[1,8-naphthyridine-2,3′-pyrrolidin]-1′-yl]propan-1-one]	81 nM	–
COc1cc([C@@H](C)C(=O)N2CC[C@@]3(CCc4cc(-c5ncccn5)c(C)nc4N3)C2)c(Cl)cn1 [Example 15, (2R)-2-(5-Chloro-2-methoxypyridin-4-yl)-1-[(2S)-7-methyl-6-(pyrimidin-2-yl)-3,4-dihydro-1H-spiro[1,8-naphthyridine-2,3′-pyrrolidin]-1′-yl]propan-1-one]	–	0.25 nM
COc1cc([C@@H](C)C(=O)N2CC[C@@]3(CCc4cc(C5CCOCC5)c(C)nc4N3)C2)c(F)cn1 [Example 131, (2R)-2-(5-fluoro-2-methoxypyridin-4-yl)-1-[(2S)-7-methyl-6-(oxan-4-yl)-3,4-dihydro-1H-spiro[1,8-naphthyridine-2,3′-pyrrolidin]-1′-yl]propan-1-one]	5.8 nM	–
COc1cc([C@@H](C)C(=O)N2CC[C@@]3(CCc4cc(-c5ccc(C(F)F)nc5)c(C)nc4N3)C2)c(F)cn1 [Example 174, (2R)-1-{(2S)-6-[6-(difluoromethyl)pyridin-3-yl)-7-methyl-3,4-dihydro-1H-spiro[1,8-naphthyridine-2,3′-pyrrolidin]-1′-yl}-2-(5-fluoro-2-methoxypyridin-4-yl)propan-1-one]	26 nM	–
COc1cc([C@@H](C)C(=O)N2CC[C@@]3(CCc4cc(-c5cncc(C6CC6)n5)c(C)nc4N3)C2)c(F)cn1 [Example 177, (2R)-1-[(2S)-6-(6-cyclopropylpyrazin-2-yl)-7-methyl-3,4-dihydro-1H-spiro[1,8-naphthyridine-2,3′-pyrrolidin]-1′-yl]-2-(5-fluoro-2-methoxypyridin-4-yl)propan-1-one]	59 nM	–
COc1cc([C@@H](C)C(=O)N2CC[C@]3(CCc4cc(-c5nnn(C)n5)c(C)nc4N3)C2)c(F)cn1 [Example 116, (2R)-2-(5-fluoro-2-methoxypyridin-4-yl)-1-[(2R)-7-methyl-6-(2-methyl-2H-tetrazol-5-yl)-3,4-dihydro-1H-spiro[1,8-naphthyridine-2,3′-pyrrolidin]-1′-yl]propan-1-one]	7.1 nM	–
